Data as given in patent US9428519B2, “Acylated derivative of homoharringtonine, preparation method therefor, and application thereof” (HANGZHOU BENSHENG PHARMACEUTICAL CO., LTD., priority 2011, dated 2016).
In brackets after ≈: the same amount, converted by molar mass. Entries after “also recorded” stand apart in the source; their conditions may differ.

Legend:
[1] = Body weight and toxicity in tumor-bearing NOD/SCID mice; type: in vivo; settings: for Weight (g) Final / Weight (g) Initial: three times a day, 10 days; for Weight (g) Initial: initial (Day 0)
Protocol: Animal: NOD/SCID mice (multiple immunodeficiency mice), 8 weeks, female, purchased from Shanghai Laboratory Animal Center of Chinese Academy of Sciences, China.
BS-HH-002, wherein BS-HH-002-0.1 indicates a dosage of 0.1 mg/kg each time, and BS-HH-002-0.3 indicates a dosage of 0.3 mg/kg each time.
Under sterile conditions, the above tumor cells in the logarithmic growth phase are collected and injected in an amount of 5×10^7/0.2 ml/mice (cell viability>95%) by subcutaneous injection into the right subaxillary of NOD/SCID mice, thus establishing an NOD/SCID mice model bearing transplanted tumor of leukemia. The mice are administered on the third day after the inoculation, wherein the experimental groups are intragastrically administered in an experimentally designed amount and the negative control group is intragastrically administered with sterile water. Each mouse is intragastrically administered three times a day in 0.4 ml each time, at 8:00, 14:00 and 20:00 with 6-hour intervals, and is successively administered for 10 days. The day before administration is Day 0 and the weight and tumor size are determined approximately every 5 days to produce a dynamic plot on weight and tumor growth. On Day 31, the mice are dissected and the tumors are taken out and weighed. The tumor inhibition rate (%) after the application of medicament is determined based on the tumor inhibition rate of the control group being zero.
(§1) The values determined are presented as mean±standard error (M±SD). The experimental data for each group are analyzed by the One-way ANOVA method of SPSS 18.0 Statistical Software, and p<0.05 is deemed as having statistically significant difference.

[2] = system: H9 (acute lymphoblastic leukemia, ALL); assay: MTT growth inhibition of leukemia cells, 72 h; type: cell-based, human
Procedure, shortened: (§2)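 Seed 6000 cells/well (1640, 10% FBS); add compound at several concentrations, mix; incubate 72 h, 37 °C, 5% CO2; MTT read; % viability vs untreated control; IC50 at 72 h.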

[3] = system: NB4 (acute promyelocytic leukemia, AML); assay: MTT growth inhibition of leukemia cells, 72 h; type: cell-based, human
Procedure, shortened: as §2

[4] = system: K562/adr (drug-resistant, chronic myeloid leukemia, CML); assay: MTT growth inhibition of leukemia cells, 72 h; type: cell-based, human
Procedure, shortened: as §2

[5] = system: Jurkat (acute lymphoblastic leukemia, ALL); assay: MTT growth inhibition of leukemia cells, 72 h; type: cell-based, human; settings: Homo sapiens, Jurkat
Procedure, shortened: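 Jurkat human acute lymphoblastic leukemia cells were seeded at 6000 cells per well in 96-well plates containing 1640 medium with 10% fetal bovine serum. Test compounds were added across a range of concentrations, and plates were held at 37° C. in 5% CO2 for 72 hours before viable cells were quantified by MTT.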

[6] = system: Kasumi-1 (acute myeloid leukemia M2 type, AML-M2); assay: MTT growth inhibition of leukemia cells, 72 h; type: cell-based, human
Procedure, shortened: as §2

[7] = system: RPMI8226 (multiple myeloma); assay: MTT growth inhibition of multiple myeloma cells, 72 h; type: cell-based, human
Procedure, shortened: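 RPMI8226 cells (6000/well) in 1640 medium with 10% FBS were exposed to graded compound concentrations for 72 h at 37 °C, 5% CO2. Viable cells were read by MTT, normalised to untreated control as 100% viability, and 72 h IC50 calculated.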

[8] = system: MGC-803 transplanted tumor of gastric cancer; assay: Inhibition of transplanted tumor of gastric cancer in BALB/c-nu nude mice; type: in vivo; settings: for Mass of tumor / Tumor Inhibition rate (%): MGC-803 in BALB/c-nu nude mice, 10 days, Day 27
Protocol: Gastric cancer cell lines: MGC-803
Animal: BALB/c-nu nude mice, 8 weeks, female, purchased from Shanghai Laboratory Animal Center of Chinese Academy of Sciences, China.
BS-HH-002, wherein BS-HH-002-0.1 indicates a dosage of 0.1 mg/kg each time, BS-HH-002-0.3 indicates a dosage of 0.3 mg/kg each time, BS-HH-002-0.5 indicates a dosage of 0.5 mg/kg each time, and BS-HH-002-1.0 indicates a dosage of 1.0 mg/kg each time.
Under sterile conditions, the above tumor cells in logarithmic growth phase are collected and injected in an amount of 2×10^7/0.2 ml/nude mice (cell viability>95%) into the right subaxillary of the nude mice by subcutaneous injection, thus establishing a BALB/c-nu nude mice model bearing transplanted tumor of gastric cancer. The mice are administered on the third day after the inoculation, wherein the experimental groups are intragastrically administered in an experimentally designed amount, and the negative control group is intragastrically administered with sterile water. Administration takes place at 8:00 for one time a day, at 8:00 and 14:00 for twice a day, and at 8:00, 14:00 and 20:00 with 6-hour intervals for three times day. The administrations are successive for 10 days. The day before administration is Day 0 and the weight and tumor size are determined approximately every 5 days to produce a plot on weight and tumor growth. On Day 27, the mice are dissected and the tumors are taken out and weighed. Based on a tumor inhibition rate of zero for the control group, the tumor inhibition rate (%) after the effect of the medicament is calculated.
as §1

[9] = 0.1 mg/kg/time, 1 time/day intragastric
[10] = 0.1 mg/kg/time, 2 times/day intragastric
[11] = 0.1 mg/kg/time, 3 times/day intragastric
[12] = 0.3 mg/kg/time, 1 time/day intragastric
[13] = 0.5 mg/kg/time, 1 time/day intragastric
[14] = 0.5 mg/kg/time, 2 times/day intragastric
[15] = 0.5 mg/kg/time, 3 times/day intragastric
[16] = 1.0 mg/kg/time, 1 time/day intragastric
[17] = 1.0 mg/kg/time, 3 times/day intragastric

COC(=O)C[C@](O)(CCCC(C)(C)OC(C)=O)C(=O)O[C@@H]1C(OC)=C[C@]23CCCN2CCc2cc4c(cc2[C@H]13)OCO4 [BS-HH-002, 6-acetylhomoharringtonine]
Weight (g) Final ([1]; 0.1 mg/kg/time intragastric): 26.7 ± 1.92 g
Weight (g) Initial ([1]; 0.1 mg/kg/time intragastric): 21.48 ± 0.05 g
Weight (g) Final ([1]; 0.3 mg/kg/time intragastric): 27.45 ± 2.48 g
Weight (g) Initial ([1]; 0.3 mg/kg/time intragastric): 22.45 ± 0.13 g
toxic or side effect ([1]; 0.1 and 0.3 mg/kg each time): does not have any obvious toxic or side effect; also recorded: does not demonstrate an obvious toxicity
impact on animal weight ([1]; initial vs final weight): does not have substantial impact on animal weight
IC50 ([2]; Homo sapiens, MTT): 4 ng/mL (≈ 0.00681 µM)
IC90 ([2]; Homo sapiens, MTT): 10 ng/mL (≈ 0.017 µM)
improvement of anti-H9 activity compared with homoharringtonine ([2]; vs HHT): more than 5 fold
IC50 ([3]; Homo sapiens, MTT): 2 ng/mL (≈ 0.0034 µM)
IC90 ([3]; Homo sapiens, MTT): 6 ng/mL (≈ 0.0102 µM)
improvement of anti-NB4 activity compared with homoharringtonine ([3]; vs HHT): more than 3 fold
IC50 ([4]; Homo sapiens, K562/Adr, MTT): 15 ng/mL (≈ 0.0255 µM)
IC90 ([4]; Homo sapiens, K562/Adr, MTT): 310 ng/mL (≈ 0.528 µM)
improvement of anti-K562/adr activity compared with homoharringtonine ([4]; vs HHT): more than 3.2 fold
IC50 [5]: 3 ng/mL (≈ 0.0051 µM)
IC90 [5]: ≥ 16000 ng/mL
IC50 ([6]; Homo sapiens, Kasumi 1, MTT): 2 ng/mL (≈ 0.0034 µM)
IC90 ([6]; Homo sapiens, Kasumi 1, MTT): 7 ng/mL (≈ 0.0119 µM)
improvement of anti-Kasumi-1 activity compared with homoharringtonine ([6]; vs HHT): more than 3.4 fold
anti-RPMI8226 (multiple myeloma) effectiveness [7]: particularly effective
IC50 ([7]; Homo sapiens, RPMI-8226, MTT): 3 ng/mL (≈ 0.0051 µM)
IC90 ([7]; Homo sapiens, RPMI-8226, MTT): 18 ng/mL (≈ 0.0306 µM)
tumor inhibition rate on gastric cancer ([8]; BALB/c-nu nude mice, all dosing regimes 0.1-1.0 mg/kg): more than 40%
Mass of tumor [8, 9]: 0.40 ± 0.18 g
Tumor Inhibition rate (%) [8, 9]: 48.97%
Mass of tumor [8, 10]: 0.46 ± 0.11 g
Tumor Inhibition rate (%) [8, 10]: 40.90%
Mass of tumor [8, 11]: 0.41 ± 0.09 g
Tumor Inhibition rate (%) [8, 11]: 48.14%
Mass of tumor [8, 12]: 0.38 ± 0.13 g
Tumor Inhibition rate (%) [8, 12]: 51.76%
Mass of tumor [8, 13]: 0.44 ± 0.13 g
Tumor Inhibition rate (%) [8, 13]: 43.81%
Mass of tumor [8, 14]: 0.44 ± 0.18 g
Tumor Inhibition rate (%) [8, 14]: 43.43%
Mass of tumor [8, 15]: 0.37 ± 0.18 g
Tumor Inhibition rate (%) [8, 15]: 52.12%
Mass of tumor [8, 16]: 0.43 ± 0.17 g
Tumor Inhibition rate (%) [8, 16]: 44.58%
Mass of tumor [8, 17]: 0.34 ± 0.05 g
Tumor Inhibition rate (%) [8, 17]: 56.67%
